Data taken from patent publication US9233061B2 (AMOREPACIFIC CORPORATION, priority 2011, dated 2016).

Assay: Precipitation of caffeine at low temperature (4° C.)
Type: physicochemical
Details: 3 days in a refrigerator (4° C.)

Amount of niacinamide necessary for inhibiting precipitation (caffeine content 1-3%): 0.5-1 time based on caffeine
Amount of niacinamide necessary for inhibiting precipitation (caffeine content 3-5%): 1-1.5 times based on caffeine
Amount of niacinamide necessary for inhibiting precipitation (caffeine content 5-10%): 1-2 times based on caffeine
Structure (SMILES): NC(=O)c1cccnc1 [niacinamide, Niacinamide]
